Reference: patent US20210128566A1, “NOVEL FUNCTIONALIZED PURINE-2,6-DIONES AND THEIR USE IN MEDICINE” (THOMAS HELLEDAYS STIFTELSE FÖR MEDICINSK FORSKNING, priority 2017, published 2021)

Target: recombinant human NUDT5 (Homo sapiens, UniProt Q9UKK9)
Experiment: NUDT5 inhibitor activity by malachite green reporter assay
Assay type: biochemical
Details: 6 nM NUDT5, 50 μM ADP-Ribose, 15 minutes at room temperature
In short: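 Coupled ADP-ribose hydrolysis in 10 mM Tris-acetate pH 8.0, 40 mM NaCl, 10 mM Mg acetate, 0.005% Tween-20, 1 mM DTT: 6 nM NUDT5, 50 μM ADP-Ribose, 10 U/ml alkaline phosphatase, 15 min at room temperature. Pi read by malachite green at 630 nm; compounds 100 μM–1.7 nM, 3-fold; IC50 by curve fit.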

IC50 (Table 3) [µM] | IC50 (Table 4) [µM] | SMILES
0.0264 |  | Cn1c(=O)c2c(nc(NC3CC3)n2Cc2nnc(-c3ccc(Cl)c(Cl)c3)o2)n(C)c1=O [Example 42, 8-(cyclopropylamino)-7-{[5-(3,4-dichlorophenyl)-1,3,4-oxadiazol-2-yl]methyl}-1,3-dimethyl-2,3,6,7-tetrahydro-1H-purine-2,6-dione]
 | 0.149 | CCOC(=O)c1cn2c(n1)CN(c1nc3c(c(=O)n(C)c(=O)n3C)n1Cc1nnc(-c3ccc(Cl)c(Cl)c3)o1)CC2 [Example 81, ethyl 7-(7-{[5-(3,4-dichlorophenyl)-1,3,4-oxadiazol-2-yl]methyl}-1,3-dimethyl-2,6-dioxo-2,3,6,7-tetrahydro-1H-purin-8-yl)-5H,6H,7H,8H-imidazo[1,2-a]pyrazine-2-carboxylate]
0.0227 |  | Cn1c(=O)c2c(nc(S(=O)(=O)C3CCCCC3)n2Cc2nnc(-c3ccc(Cl)c(Cl)c3)o2)n(C)c1=O [Example 24, 8-(cyclohexanesulfonyl)-7-{[5-(3,4-dichlorophenyl)-1,3,4-oxadiazol-2-yl]methyl}-1,3-dimethyl-2,3,6,7-tetrahydro-1H-purine-2,6-dione]
 | 0.262 | COc1cc(-c2nnc(Cn3c(SCCNC(=O)OC(C)(C)C)nc4c3c(=O)n(C)c(=O)n4C)o2)ccc1C [Example 140, tert-butyl N-{2-[(7-{[5-(3-methoxy-4-methylphenyl)-1,3,4-oxadiazol-2-yl]methyl}-1,3-dimethyl-2,6-dioxo-2,3,6,7-tetrahydro-1H-purin-8-yl)sulfanyl]ethyl}carbamate]
 | 0.226 | Cn1c(=O)c2c(nc(N3CCN(CCNC(=O)OC(C)(C)C)CC3)n2Cc2nnc(-c3ccc(Cl)c(Cl)c3)o2)n(C)c1=O [Example 64, tert-butyl N-{2-[4-(7-{[5-(3,4-dichlorophenyl)-1,3,4-oxadiazol-2-yl]methyl}-1,3-dimethyl-2,6-dioxo-2,3,6,7-tetrahydro-1H-purin-8-yl)piperazin-1-yl]ethyl}carbamate]
 | 0.0334 | COc1cc(-c2nnc(Cn3c(N4CCC(C(N)=O)CC4)nc4c3c(=O)n(C)c(=O)n4C)o2)ccc1C [Example 138, 1-(7-{[5-(3-methoxy-4-methylphenyl)-1,3,4-oxadiazol-2-yl]methyl}-1,3-dimethyl-2,6-dioxo-2,3,6,7-tetrahydro-1H-purin-8-yl)piperidine-4-carboxamide]
 | 4.39 | Cn1c(=O)c2c(nc(Cl)n2Cc2nnc(-c3ccc(F)cc3)o2)n(C)c1=O [Example 90, 8-chloro-7-{[5-(4-fluorophenyl)-1,3,4-oxadiazol-2-yl]methyl}-1,3-dimethyl-2,3,6,7-tetrahydro-1H-purine-2,6-dione]
0.356 |  | CCCNc1nc2c(c(=O)n(C)c(=O)n2C)n1Cc1nnc(-c2cccc(C)c2)o1 [Example 49, 1,3-dimethyl-7-{[5-(3-methylphenyl)-1,3,4-oxadiazol-2-yl]methyl}-8-(propylamino)-2,3,6,7-tetrahydro-1H-purine-2,6-dione]
0.432 |  | CCCCCCN1CCN(c2nc3c(c(=O)n(C)c(=O)n3C)n2Cc2nnc(-c3ccc(Cl)c(Cl)c3)o2)CC1 [Example 15, 7-{[5-(3,4-dichlorophenyl)-1,3,4-oxadiazol-2-yl]methyl}-8-(4-hexylpiperazin-1-yl)-1,3-dimethyl-2,3,6,7-tetrahydro-1H-purine-2,6-dione]
0.0268 |  | COC1CCN(c2nc3c(c(=O)n(C)c(=O)n3C)n2Cc2nnc(-c3ccc(Cl)c(Cl)c3)o2)CC1 [Example 43, 7-{[5-(3,4-dichlorophenyl)-1,3,4-oxadiazol-2-yl]methyl}-8-(4-methoxypiperidin-1-yl)-1,3-dimethyl-2,3,6,7-tetrahydro-1H-purine-2,6-dione]
0.034 |  | Cn1c(=O)c2c(nc(N3CCC3)n2Cc2nnc(-c3ccc(Cl)c(Cl)c3)o2)n(C)c1=O [Example 36, 8-(azetidin-1-yl)-7-{[5-(3,4-dichlorophenyl)-1,3,4-oxadiazol-2-yl]methyl}-1,3-dimethyl-2,3,6,7-tetrahydro-1H-purine-2,6-dione]
